According to the NIST ThermoML archive (doi:10.1021/je200531k):
Numbers after ± are expanded uncertainties.

Conditions: Crystal; DTA

Structure (SMILES): C=C(C)[C@@H]1CC[C@]2(C(=O)O)CC[C@]3(C)[C@H](CC[C@@H]4[C@@]5(C)CC[C@H](O)C(C)(C)[C@@H]5CC[C@]43C)[C@@H]12 [betulinic acid]
- Normal melting temperature: 315.30 ± 0.5 °C
